Patent US7241767B2, “Quinazoline(di)ones for invertebrate pest control” (E. I. du Pont de Nemours and Company, priority 2002, dated 2007)

What was measured:
[1] = test system: green peach aphid (Myzus persicae); assay: Test E: control of green peach aphid on radish plant, contact and/or systemic; format: in vivo; conditions: 144 h, sprayed at 250 ppm, visually assessed after 6 days
Excerpt: For evaluating control of green peach aphid (Myzus persicae) through contact and/or systemic means, the test unit consisted of a small- open container with a 12–15-day-old radish plant inside. This was pre-infested by placing on a leaf of the test plant 30–40 aphids on a piece of leaf excised from a culture plant (cut-leaf method). The larvae moved onto the test plant as the leaf piece desiccated. After pre-infestation, the soil of the test unit was covered with a layer of sand.
(§1) Test compounds were formulated using a solution containing 10% acetone, 90% water and 300 ppm X-77® Spreader Lo-Foam Formula non-ionic surfactant containing alkylarylpolyoxyethylene, free fatty acids, glycols and isopropanol (Loveland Industries, Inc.). The formulated compounds were applied in 1 mL of liquid through a SUJ2 atomizer nozzle with ⅛ JJ custom body (Spraying Systems Co.) positioned 1.27 cm (0.5 inches) above the top of each test unit. All experimental compounds in this screen were sprayed at 250 ppm and replicated three times. After spraying of the formulated test compound, each test unit was allowed to dry for 1 hour and then a black, screened cap was placed on top. The test units were held for 6 days in a growth chamber at 19–21° C. and 50–70% relative humidity. Each test unit was then visually assessed for insect mortality.

[2] = test system: cotton melon aphid (Aphis gossypii); assay: Test F: control of cotton melon aphid on cotton plant, contact and/or systemic; format: in vivo; conditions: 144 h, sprayed at 250 ppm, visually rated after 6 days
Procedure: as §1
For evaluating control of cotton melon aphid (Aphis gossypii) through contact and/or systemic means, the test unit consisted of a small open container with a 6–7-day-old cotton plant inside. This was pre-infested with 30–40 aphids on a piece of leaf according to the cut-leaf method described for Test E, and the soil of the test unit was covered with a layer of sand.
Test compounds were formulated and sprayed at 250 ppm as described for Test E. The applications were replicated three times. After spraying, the test units were maintained in a growth chamber and then visually rated as described for Test E.

[3] = test system: Potato Leafhopper (Empoasca fabae Harris); assay: Test H: control of Potato Leafhopper on Longio bean plant, contact and/or systemic; format: in vivo; conditions: 144 h, sprayed at 250 ppm, post-infested with adults, visually assessed after 6 days
Procedure: as §1
For evaluating control of Potato Leafhopper (Empoasca fabae Harris) through contact and/or systemic means, the test unit consisted of a small open container with a 5–6 day old Longio bean plant (primary leaves emerged) inside. White sand was added to the top of the soil and one of the primary leaves was excised prior to application. Test compounds were formulated and sprayed at 250 ppm and replicated three times as described for Test E. After spraying, the test units were allowed to dry for 1 hour before they were post-infested with 5 Potato Leafhoppers (18 to 21 day old adults). A black, screened cap is placed on the top of the cylinder. The test units were held for 6 days in a growth chamber at 19–21° C. and 50–70% relative humidity. Each test unit was then visually assessed for insect mortality.

[4] = test system: Corn Planthopper (Peregrinus maidis); assay: Test G: control of Corn Planthopper on corn (maize) plant, contact and/or systemic; format: in vivo; conditions: 144 h, sprayed at 250 ppm, post-infested with nymphs, visually assessed after 6 days
Procedure: as §1
For evaluating control of Corn Planthopper (Peregrinus maidis) through contact and/or systemic means, the test unit consisted of a small open container with a 3–4 day old corn (maize) plant (spike) inside. White sand was added to the top of the soil prior to application. […] Each test unit was then visually assessed for insect mortality.

Row | melting point | Compound | mortality at 250 ppm [1] | mortality at 250 ppm [2] | mortality at 250 ppm [3] | mortality at 250 ppm [4]
1 | – | CC(C)N1CN(C(=O)c2cc(Cl)nn2-c2ncccc2Cl)c2c(Cl)cc(Cl)cc2C1=O [Compound 8, 6,8-Dichloro-1-[[3-Chloro-1-(3-Chloro-2-pyridinyl)-1H-pyrazol-5-yl]carbonyl]-2,3-dihydro-3-(1-methylethyl)-4(H)-quinazolinone] | ≥ 80% | ≥ 80% | ≥ 80% | –
2 | – | CC(C)N1CN(C(=O)c2cc(Br)nn2-c2ncccc2Cl)c2c(Cl)cc(Cl)cc2C1=O [Compound 9, 1-[[3-Bromo-1-(3-Chloro-2-pyridinyl)-1H-pyrazol-5-yl]carbonyl]-6,8-dichloro-2,3-dihydro-3-(1-methylethyl)-4-(1H)-quinazolinone] | ≥ 80% | ≥ 80% | ≥ 80% | –
3 | – | CC(C)N1CN(C(=O)c2cc(C(F)(F)F)nn2-c2ncccc2Cl)c2c(Cl)cc(Cl)cc2C1=O [Compound 10, 6,8-Dichloro-1-[[1-(3-Chloro-2-pyridinyl)-3-(trifluoromethyl)-1H-pyrazol-5-yl]carbonyl]-2,3-dihydro-3-(1-methylethyl)-4(1H)-quinazolinone] | – | – | ≥ 80% | –
4 | – | CN1CN(C(=O)c2cc(Cl)nn2-c2ncccc2Cl)c2c(Cl)cc(Cl)cc2C1=O [Compound 11, 6-8-Dichloro-1-[[3-Chloro-1-(3-Chloro-2-pyridinyl)-1H-pyrazol-5-yl]carbonyl]-2,3-dihydro-3-methyl-4(1H)-quinazolinone] | ≥ 80% | ≥ 80% | ≥ 80% | –
5 | – | CN1CN(C(=O)c2cc(Br)nn2-c2ncccc2Cl)c2c(Cl)cc(Cl)cc2C1=O [Compound 12, 1-[[3-Bromo-1-(3-Chloro-2-pyridinyl)-1H-pyrazol-5-yl]carbonyl]-6,8-dichloro-2,3-dihydro-3-methyl-4(1H)-quinazolinone] | ≥ 80% | ≥ 80% | ≥ 80% | ≥ 80%
6 | – | CN1CN(C(=O)c2cc(C(F)(F)F)nn2-c2ncccc2Cl)c2c(Cl)cc(Cl)cc2C1=O [Compound 13, 6,8-Dichloro-1-[[1-(3-Chloro-2-pyridinyl)-3-(trifluoromethyl)-1H-pyrazol-5-yl]carbonyl]-2,3-dihydro-3-methyl-4(1H)-quinazolinone] | ≥ 80% | ≥ 80% | ≥ 80% | ≥ 80%
7 | 219 to 220 °C | Cc1cc(Cl)cc2c1N(C(=O)c1cc(Cl)nn1-c1ncccc1Cl)CN(C(C)C)C2=O [Compound 14, 6-Chloro-1-[[3-Chloro-1-(3-Chloro-2-pyridinyl)-1H-pyrazol-5-yl]carbonyl]-2,3-dihydro-8-methyl-3-(1-methylethyl)-4(1H)-quinazolinone] | – | – | – | –
8 | – | Cc1cc(Cl)cc2c1N(C(=O)c1cc(Br)nn1-c1ncccc1Cl)CN(C(C)C)C2=O [Compound 15, 1-[[3-Bromo-1-(3-Chloro-2-pyridinyl)-1H-pyrazol-5-yl]carbonyl]-6-Chloro-2,3-dihydro-8-methyl-3-(1-methylethyl)-4-(1H)-quinazolinone] | – | ≥ 80% | ≥ 80% | –
9 | – | Cc1cc(Cl)cc2c1N(C(=O)c1cc(C(F)(F)F)nn1-c1ncccc1Cl)CN(C(C)C)C2=O [Compound 16, 6-Chloro-1-[[1-(3-Chloro-2-pyridinyl)-3-(trifluoromethyl)-1H-pyrazol-5-yl]carbonyl]-2,3-dihydro-8-methyl-3-(1-methylethyl)-4(1H)-quinazolinone] | – | ≥ 80% | ≥ 80% | –
10 | 238 to 240 °C | Cc1cc(Cl)cc2c1N(C(=O)c1cc(Cl)nn1-c1ncccc1Cl)CN(C)C2=O [Compound 17, 6-Chloro-1-[[3-Chloro-1-(3-Chloro-2-pyridinyl)-1H-pyrazol-5-yl]carbonyl]-2,3-dihydro-3,8-dimethyl-4(1H)-quinazolinone] | – | – | – | –
11 | 254 to 255 °C | Cc1cc(Cl)cc2c1N(C(=O)c1cc(Br)nn1-c1ncccc1Cl)CN(C)C2=O [Compound 18, 1-[[3-Bromo-1-(3-Chloro-2-pyridinyl)-1H-pyrazol-5-yl]carbonyl]-6-Chloro-2,3-dihydro-3,8-dimethyl-4(1H)-quinazolinone] | – | – | – | –
12 | – | Cc1cc(Cl)cc2c1N(C(=O)c1cc(C(F)(F)F)nn1-c1ncccc1Cl)CN(C)C2=O [Compound 19, 6-Chloro-1-[[1-(3-Chloro-2-pyridinyl)-3-(tifluoromethyl)-1H-pyrazol-5-yl]carbonyl]-2,3-dihydro-3,8-dimethyl-4(1H)-quinazolinone] | ≥ 80% | ≥ 80% | ≥ 80% | –
13 | 143 to 190 °C | Cc1cccc2c1N(C(=O)c1cc(Cl)nn1-c1ncccc1Cl)C(C(=O)O)N(C(C)C)C2=O (centres unmarked) [Compound 20] | – | – | – | –
14 | 135 to 156 °C | O=C1c2cc(Cl)cc(Cl)c2N(C(=O)c2cc(Cl)nn2-c2ncccc2Cl)C(c2cccnc2)N1Cl (centres unmarked) [Compound 22] | – | – | – | –
15 | – | O=C1c2cc(Cl)cc(Cl)c2N(C(=O)c2cc(Cl)nn2-c2ncccc2Cl)C(c2c[nH]cn2)N1Cl (centres unmarked) [Compound 24] | – | – | ≥ 80% | –
16 | – | O=C1NCN(C(=O)c2cc(Cl)nn2-c2ncccc2Cl)c2c(Cl)cc(Cl)cc21 [Compound 28, 6,8-Dichloro-1-[[3-Chloro-1-(3-Chloro-2-pyridinyl)-1H-pyrazol-5-yl]carbonyl]-2,3-dihydro-4(1H)-quinazolinone] | ≥ 80% | – | – | –
17 | – | O=C1NCN(C(=O)c2cc(C(F)(F)F)nn2-c2ncccc2Cl)c2c(Cl)cc(Cl)cc21 [Compound 29, 6,8-Dichloro-1-[[1-(3-Chloro-2-pyridinyl)-3-(trifluoromethyl)-1H-pyrazol-5-yl]carbonyl]-2,3-dihydro-4(1H)-quinazolinone] | ≥ 80% | ≥ 80% | ≥ 80% | –
